Values of other authors, collected in patent US20210393628A1, “COMPOSITIONS AND METHODS FOR MODULATING T CELL EXHAUSTION” (The Board of Trustees of the Leland Stanford Junior …, priority 2018, published 2021).

Test system: tonically signaling CAR T cells
Settings: expanded in the presence of dasatinib

For Cc1nc(Nc2ncc(C(=O)Nc3c(C)cccc3Cl)s2)cc(N2CCN(CCO)CC2)n1 [dasatinib], the cytotoxicity is given as “augmented”.
